Test results as given in patent publication US20240199546A1, “INHIBITORS OF SOLUTE CARRIER FAMILY 6A MEMBER 19 (SLC6A19) AND METHODS OF USE THEREOF” (Maze Therapeutics, Inc., priority 2022, published 2024).

Target: T1, human SLC6A19 and TMEM27 (Homo sapiens, UniProt Q695T7)
T1 construct: expressed in transfected cells
T1 sequence (Q695T7 1-634): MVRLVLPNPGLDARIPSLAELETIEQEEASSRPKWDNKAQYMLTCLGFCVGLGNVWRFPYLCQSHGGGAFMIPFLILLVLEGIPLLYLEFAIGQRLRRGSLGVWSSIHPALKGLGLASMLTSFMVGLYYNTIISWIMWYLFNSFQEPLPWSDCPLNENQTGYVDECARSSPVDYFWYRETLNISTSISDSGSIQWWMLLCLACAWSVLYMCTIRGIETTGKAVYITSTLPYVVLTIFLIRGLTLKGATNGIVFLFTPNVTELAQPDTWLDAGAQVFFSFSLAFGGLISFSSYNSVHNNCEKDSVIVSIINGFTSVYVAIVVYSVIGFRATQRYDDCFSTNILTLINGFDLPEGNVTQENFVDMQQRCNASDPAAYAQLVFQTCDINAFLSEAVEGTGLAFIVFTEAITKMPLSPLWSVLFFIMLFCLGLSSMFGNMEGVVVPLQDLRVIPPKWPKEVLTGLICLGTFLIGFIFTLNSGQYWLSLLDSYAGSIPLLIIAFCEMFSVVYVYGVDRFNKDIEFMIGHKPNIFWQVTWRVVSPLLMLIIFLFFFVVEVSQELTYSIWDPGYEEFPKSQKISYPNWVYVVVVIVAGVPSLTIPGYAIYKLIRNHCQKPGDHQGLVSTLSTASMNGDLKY
T1 sequence (Q9HBJ8 15-222 partner): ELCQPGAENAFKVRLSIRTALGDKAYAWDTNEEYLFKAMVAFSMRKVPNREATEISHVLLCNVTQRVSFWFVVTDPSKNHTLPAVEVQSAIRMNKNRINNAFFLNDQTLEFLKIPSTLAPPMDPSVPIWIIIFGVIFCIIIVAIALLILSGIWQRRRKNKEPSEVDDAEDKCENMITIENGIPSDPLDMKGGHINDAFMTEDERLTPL
Assay: Radiolabelled (3H) leucine uptake in CHO cells with doxycycline-inducible expression of human SLC6A19 and TMEM27 (Example B-1)
Format: cell-based
Conditions: CHO cells with doxycycline-inducible expression of human SLC6A19 and TMEM27, read-out: SLC6A19_Radioligand Uptake Assay IC50
Procedure, shortened: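 CHO cells were induced with doxycycline for 18 h at 37 °C, washed in HBSS, then exposed to compounds for 1 h: 8-point, 3-fold dilutions in duplicate, 0.5% DMSO final. Uptake measured by scintillation counting after 2 h shaking. Activity normalized with positive control as 0% and DMSO as 100%.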

Compound	IC50
O=C(NCc1cc2cc(F)c(OCc3cscn3)cc2[nH]1)C1(C(F)(F)F)CC1 [Compound 127, N-((5-fluoro-6-(thiazol-4-ylmethoxy)-1H-indol-2-yl)methyl)-1-(trifluoromethyl)cyclopropane-1-carboxamide]	98 nM
CC(C)OC(=O)NCc1cc2cc(Cl)c(OCc3cscn3)cc2[nH]1 [Compound 623, isopropyl ((5-chloro-6-(thiazol-4-ylmethoxy)-1H-indol-2-yl)methyl)carbamate]	532 nM
CC1(C(=O)NCc2cc3cc(Cl)c(OCc4ncsc4Cl)cc3[nH]2)CC1 [Compound 400, N-((5-chloro-6-((5-chlorothiazol-4-yl)methoxy)-1H-indol-2-yl)methyl)-1-methylcyclopropane-1-carboxamide]	556 nM
Cc1cc(COc2cc3[nH]c(CNC(=O)[C@H]4C[C@@H]5CC[C@H]4O5)cc3cc2Cl)on1 (racemic) [Compound 297, (1R,2S,4S)-N-((5-chloro-6-((3-methylisoxazol-5-yl)methoxy)-1H-indol-2-yl)methyl)-7-oxabicyclo[2.2.1]heptane-2-carboxamide and (1S,2R,4R)-N-((5-chloro-6-((3-methylisoxazol-5-yl)methoxy)-1H-indol-2-yl)methyl)-7-oxabicyclo[2.2.1]heptane-2-carboxamide]	1020 nM
O=C(NCc1cc2cc(Cl)c(OCc3cscn3)cc2[nH]1)[C@H]1CCCO1 [Compound 266, (R)-N-((5-chloro-6-(thiazol-4-ylmethoxy)-1H-indol-2-yl)methyl)tetrahydrofuran-2-carboxamide]	142 nM
CCc1cc2cc(CNC(=O)C3(C)CC3)[nH]c2cc1OCc1ccon1 [Compound 61, N-((5-ethyl-6-(isoxazol-3-ylmethoxy)-1H-indol-2-yl)methyl)-1-methylcyclopropane-1-carboxamide]	297 nM
COCC(=O)NCc1cc2cc(Cl)c(OCc3cc(C)no3)cc2[nH]1 [Compound 272, N-((5-chloro-6-((3-methylisoxazol-5-yl)methoxy)-1H-indol-2-yl)methyl)-2-methoxyacetamide]	78.9 nM
CC(=O)NCc1cc2cc(Cl)c(OC[C@H]3CCCO3)cc2[nH]1 [Compound 465, (R)-N-((5-chloro-6-((tetrahydrofuran-2-yl)methoxy)-1H-indol-2-yl)methyl)acetamide]	6210 nM
CCNC(=O)NCc1cc2cc(Cl)c(OCc3cc(C)no3)cc2[nH]1 [Compound 369, 1-((5-chloro-6-((3-methylisoxazol-5-yl)methoxy)-1H-indol-2-yl)methyl)-3-ethylurea]	125 nM
O=C(NCc1cc2cc(Cl)c(OCc3cscn3)cc2[nH]1)[C@H]1C[C@@H]1F [Compound 544, (1R,2S)-N-((5-chloro-6-(thiazol-4-ylmethoxy)-1H-indol-2-yl)methyl)-2-fluorocyclopropane-1-carboxamide]	119 nM
CC(C#N)C(=O)NCc1cc2cc(Cl)c(OCc3cscn3)cc2[nH]1 (racemic) [Compound 445, (S)-N-((5-chloro-6-(thiazol-4-ylmethoxy)-1H-indol-2-yl)methyl)-2-cyanopropanamide and (R)-N-((5-chloro-6-(thiazol-4-ylmethoxy)-1H-indol-2-yl)methyl)-2-cyanopropanamide]	444 nM
CC1(C(=O)NCc2cc3c(F)c(Cl)c(OCc4ccon4)cc3[nH]2)CC1 [Compound 15, N-((5-chloro-4-fluoro-6-(isoxazol-3-ylmethoxy)-1H-indol-2-yl)methyl)-1-methylcyclopropane-1-carboxamide]	363 nM
Cc1cc(COc2cc3[nH]c(CNC(=O)C4(C#N)CC4)cc3cc2Cl)on1 [Compound 484, N-((5-chloro-6-((3-methylisoxazol-5-yl)methoxy)-1H-indol-2-yl)methyl)-1-cyanocyclopropane-1-carboxamide]	199 nM
CC(C)c1cc2cc(CNC(=O)C3(C)CC3)[nH]c2cc1OCc1ccon1 [Compound 204, N-((5-isopropyl-6-(isoxazol-3-ylmethoxy)-1H-indol-2-yl)methyl)-1-methylcyclopropane-1-carboxamide]	536 nM
O=C(NCc1cc2cc(F)c(CCc3cscn3)cc2[nH]1)N1CCCC1 [Compound 601, N-((5-fluoro-6-(2-(thiazol-4-yl)ethyl)-1H-indol-2-yl)methyl)pyrrolidine-1-carboxamide]	174 nM
C[C@@H]1CCCN1C(=O)NCc1cc2cc(F)c(OCc3cscn3)cc2[nH]1 [Compound 386, (R)-N-((5-fluoro-6-(thiazol-4-ylmethoxy)-1H-indol-2-yl)methyl)-2-methylpyrrolidine-1-carboxamide]	174 nM
[2H]C([2H])([2H])C1(C(=O)NCc2cc3cc(Cl)c(OCc4cscn4)cc3[nH]2)CC1 [Compound 483, N-((5-chloro-6-(thiazol-4-ylmethoxy)-1H-indol-2-yl)methyl)-1-(methyl-d3)cyclopropane-1-carboxamide]	170 nM
Cc1cc(COc2cc3[nH]c(CNC(=O)[C@@]4(C)CCCO4)cc3cc2Cl)on1 [Compound 307, (R)-N-((5-chloro-6-((3-methylisoxazol-5-yl)methoxy)-1H-indol-2-yl)methyl)-2-methyltetrahydrofuran-2-carboxamide]	579 nM
Cc1cc(COc2cc3[nH]c(CNC(=O)C(C)C#N)cc3cc2Cl)on1 (racemic) [Compound 486, (S)-N-((5-chloro-6-((3-methylisoxazol-5-yl)methoxy)-1H-indol-2-yl)methyl)-2-cyanopropanamide and (R)-N-((5-chloro-6-((3-methylisoxazol-5-yl)methoxy)-1H-indol-2-yl)methyl)-2-cyanopropanamide]	387 nM
Cc1cc(COc2cc3[nH]c(CNC(=O)C4(F)CC4)cc3cc2Cl)on1 [Compound 571, N-((5-chloro-6-((3-methylisoxazol-5-yl)methoxy)-1H-indol-2-yl)methyl)-1-fluorocyclopropane-1-carboxamide]	161 nM
CCC(=O)NCc1cc2cc(F)c(OCc3ccon3)cc2[nH]1 [Compound 137, N-((5-fluoro-6-(isoxazol-3-ylmethoxy)-1H-indol-2-yl)methyl)propionamide]	183 nM
Cc1cc(COc2cc3[nH]c(CNC(=O)[C@H]4C[C@H]4F)cc3cc2Cl)on1 [Compound 539, (1R,2R)-N-((5-chloro-6-((3-methylisoxazol-5-yl)methoxy)-1H-indol-2-yl)methyl)-2-fluorocyclopropane-1-carboxamide]	123 nM
Cc1cc(COc2cc3[nH]c(CNC(=O)[C@H](C)O)cc3cc2Cl)on1 [Compound 284, (S)-N-((5-chloro-6-((3-methylisoxazol-5-yl)methoxy)-1H-indol-2-yl)methyl)-2-hydroxypropanamide]	172 nM
CN1CCC1C(=O)NCc1cc2cc(Cl)c(OCc3cscn3)cc2[nH]1 (racemic) [Compound 669, N-((5-chloro-6-(thiazol-4-ylmethoxy)-1H-indol-2-yl)methyl)-1-methylazetidine-2-carboxamide]	3880 nM
C[C@H]1CCN(C(=O)NCc2cc3cc(F)c(OCc4ccon4)cc3[nH]2)C1 [Compound 382, (S)-N-((5-fluoro-6-(isoxazol-3-ylmethoxy)-1H-indol-2-yl)methyl)-3-methylpyrrolidine-1-carboxamide]	420 nM
O=C(NCc1cc2cc(Cl)c(OCc3cscn3)cc2[nH]1)[C@@H]1CCO1 [Compound 315, (S)-N-((5-chloro-6-(thiazol-4-ylmethoxy)-1H-indol-2-yl)methyl)oxetane-2-carboxamide]	148 nM
CC1(C(=O)NCc2cc3cc(Cl)c(OCc4ncon4)cc3[nH]2)CC1 [Compound 319, N-((6-((1,2,4-oxadiazol-3-yl)methoxy)-5-chloro-1H-indol-2-yl)methyl)-1-methylcyclopropane-1-carboxamide]	273 nM
CC(=O)NCc1cc2c(F)cc(OCc3cc(C)no3)cc2[nH]1 [Compound 527, N-((4-fluoro-6-((3-methylisoxazol-5-yl)methoxy)-1H-indol-2-yl)methyl)acetamide]	4610 nM
Cc1cc(COc2cc3[nH]c(CNC(=O)C4(C#N)CCC4)cc3cc2Cl)on1 [Compound 487, N-((5-chloro-6-((3-methylisoxazol-5-yl)methoxy)-1H-indol-2-yl)methyl)-1-cyanocyclobutane-1-carboxamide]	367 nM
CC1(C(=O)NCc2cc3ccc(OCc4ccon4)c(F)c3[nH]2)CC1 [Compound 201, N-((7-fluoro-6-(isoxazol-3-ylmethoxy)-1H-indol-2-yl)methyl)-1-methylcyclopropane-1-carboxamide]	5070 nM
